Measurements taken from patent US20080166805A1, “Culturing human cells and tissues in an N-glycolylneuraminic acid-free environment” (The Regents of the University of California, priority 2005, published 2008).

Assays:
Caco-2 cells = test: Endocytosis inhibition experiments (Neu5Gc uptake in Caco-2 cells); format: cell-based, human; settings: 2 h pre-treatment with drug, then 3 mM Neu5Gc
Protocol: The sonicate was centrifuged at 75×g for 15 min., and the pellet obtained consisted primarily of nuclei and unbroken cells. […] A portion (20%) of the “total homogenate” fraction was taken for protein quantification and Sia analysis by DMB derivatization and HPLC analysis (as discussed below.) The remainder was centrifuged at 100,000×g for 1 h. The resulting pellet, called the “membrane” fraction, was then resuspended by sonication (15 sec.) in 200 μl of sodium acetate buffer, pH 5.5. The 100,000×g supernatant, called the “soluble” fraction was adjusted to 90% ethanol using absolute ice-cold ethanol, and placed overnight at −20° C. The flocculant precipitate, which represents the “soluble protein” fraction, was washed 3 times with 90% ice-cold ethanol and then resuspended in 200 μl of water. The supernatant fluid representing the cytosolic low molecular weight (LMW) fraction was dried and brought up in 100 μL with water prior to Sia analysis. All the Sias in these fractions were released with mild acid hydrolysis if necessary and then analyzed by HPLC after DMB derivatization. Protein quantification was performed on the total homogenate, membrane and soluble protein fractions by using the BCA protein assay kit from Pierce (Rockford, Ill.) In some experiments, the resulting data obtained for the Sia bound to the membrane fraction and to the soluble proteins were pooled and presented here as a High Molecular Weight (HMW) fraction. Sialic Acid Release, DMB Derivatization and HPLC Analysis—The bound Sias from the total homogenate, membrane and soluble protein fractions were released using 2M acetic acid hydrolysis, 3 h. at 80° C. The released Sias, or free Sias, contained in the soluble LMW fraction were passed through a Microcon® YM-10 filter (Millipore, Bedford, Mass.) prior to DMB derivatization, which was done according to Hara et al., 1989. […] The eluant was monitored by fluorescence. Quantification of Sias—For all HPLC chromatograms, the quantification of Sias was done by comparison with known quantities of DMB derivatized Neu5Gc and Neu5Ac used as standards and then reported in terms of pmoles of Sia. For total homogenate, membrane and cytosolic protein fractions, this number was expressed per mg of protein. Due to minor sample-to-sample variations in amounts and recoveries, the data in the Figures is presented as percent of Neu5Gc over total Sias, rather than as absolute amounts. Endocytosis Inhibition Experiments—Caco-2 or normal fibroblast cells were split and cultured in alpha-MEM media supplemented respectively with 20% or 15% human serum for 4 days before starting the endocytosis drug inhibition experiments in order to deplete any Neu5Gc derived from FCS. Cells were then pre-treated for 2 h. with the specific inhibitors under the same culture conditions. Fresh media containing the same amount of inhibitor and 3 mM of Neu5Gc was then added to the cells, which were incubated for 16 h or 3 days and finally harvested and fractionated as described above.

[1] = tested on: normal human skin fibroblasts (WT); test: Neu5Gc/ManNGc feeding experiment, normal human skin fibroblasts; format: cell-based; settings: normal wild-type (WT) fibroblasts fed 3 mM for 3 days
Protocol: Cell Culture—Caco-2 cells were propagated in alpha-MEM containing GLUTAMAX™ (Invitrogen, San Diego, Calif.) and a mixture of ribonucleosides and deoxyribonucleosides (Gibco/Invitrogen, San Diego, Calif.) supplemented with 20% FCS. All the fibroblast cell lines and CHO-K1 cells were cultured in the same media supplemented respectively with 15% non-heat inactivated FCS or 10% heat inactivated FCS. Chimpanzee Fred and human […] EBV-transformed lymphoblasts were cultured in RPMI-1640 (Gibco/Invitrogen, San Diego, Calif.) supplemented with 10% heat inactivated FCS or 15% human serum. All of the cultures were maintained at 37° C., 5% CO2 atmosphere. In order to deplete any remaining Neu5Gc from FCS, the cells were split and cultured prior to Neu5Gc feeding experiments for at least 4 days in alpha-MEM supplemented with an adequate percentage of heat-inactivated premium human serum instead of FCS. The cells were then maintained under the same conditions during the whole feeding experiment. The human serum was heat inactivated at 56° C. for 30 min. before use.
Neu5Gc and ManNGc Feeding Experiment—Neu5Ac, Neu5Gc or ManNGc were dried, dissolved in the appropriate media supplemented with heat-inactivated human serum, sterilized using a Spin-X® (Corning Inc., Corning, N.Y.) and then added to the cells. The pH of the media containing Sia was adjusted to neutrality using sterilized 1M NaOH before starting the feeding experiment. Cells were cultured in the presence of up to 3 mM free Sia or ManNGc for 1 or 3 days at 37° C. At the end of the feeding, cells were washed with cold PBS, harvested either by scraping or with 2 mM EDTA for fibroblasts, and washed again with cold PBS prior to fractionation.
Fractionation of the Labeled Cells—Washed cell pellets were sonicated into 500 μL of 20 mM sodium phosphate buffer or 20 mM Tris-HCl, pH 7.5, using 4×15 second pulses of a sonicator cell disrupter, model Some Dismembrator (Fisher Scientific, Hampton, N.J.) at a probe setting of 3. The sonicate was centrifuged at 75×g for 15 min., and the pellet obtained consisted primarily of nuclei and unbroken cells. The pellet contained <5% of the incorporated sialic acid as determined using a radioactive tracer (data not shown.) The supernatant was therefore considered as the “total homogenate” fraction. A portion (20%) of the “total homogenate” fraction was taken for protein quantification and Sia analysis by DMB derivatization and HPLC analysis (as discussed below.) The remainder was centrifuged at 100,000×g for 1 h. The resulting pellet, called the “membrane” fraction, was then resuspended by sonication (15 sec.) in 200 μl of sodium acetate buffer, pH 5.5. The 100,000×g supernatant, called the “soluble” fraction was adjusted to 90% ethanol using absolute ice-cold ethanol, and placed overnight at −20° C. The flocculant precipitate, which represents the “soluble protein” fraction, was washed 3 times with 90% ice-cold ethanol and then resuspended in 200 μl of water. […] All the Sias in these fractions were released with mild acid hydrolysis if necessary and then analyzed by HPLC after DMB derivatization. Protein quantification was performed on the total homogenate, membrane and soluble protein fractions by using the BCA protein assay kit from Pierce (Rockford, Ill.) In some experiments, the resulting data obtained for the Sia bound to the membrane fraction and to the soluble proteins were pooled and presented here as a High Molecular Weight (HMW) fraction. […]

[2] = tested on: lysosomal sialic acid transporter mutant human fibroblasts (GM05520); test: Neu5Gc/ManNGc feeding, lysosomal sialic acid transporter mutant fibroblasts GM05520; format: cell-based; settings: GM05520 (ISSD) fibroblasts fed 3 mM for 3 days
Description: (§1) Cell Lines—Caco-2 cells (human epithelial cells isolated from a primary colon carcinoma), normal human skin fibroblasts (CCD-919-SK) and chinese hamster ovary (CHO-K1) cells were purchased from ATCC (Manassas, Va.) Mutant human skin fibroblasts (GM05520, GM08496 and GM01718) were obtained from the Coriell Institute for Medical Research (Camden, N.J.) Chimpanzee Fred and human […] EBV-transformed lymphoblasts were a gift from Dr. Peter Parham, Stanford University, CA. […]
(§2) Fractionation of the Labeled Cells—Washed cell pellets were sonicated into 500 μL of 20 mM sodium phosphate buffer or 20 mM Tris-HCl, pH 7.5, using 4×15 second pulses of a sonicator cell disrupter, model Some Dismembrator (Fisher Scientific, Hampton, N.J.) at a probe setting of 3. […] The pellet contained <5% of the incorporated sialic acid as determined using a radioactive tracer (data not shown.) The supernatant was therefore considered as the “total homogenate” fraction. A portion (20%) of the “total homogenate” fraction was taken for protein quantification and Sia analysis by DMB derivatization and HPLC analysis (as discussed below.) The remainder was centrifuged at 100,000×g for 1 h. […] All the Sias in these fractions were released with mild acid hydrolysis if necessary and then analyzed by HPLC after DMB derivatization. […]

[3] = tested on: lysosomal sialic acid transporter mutant human fibroblasts (GM08496); test: Neu5Gc/ManNGc feeding, lysosomal sialic acid transporter mutant fibroblasts GM08496; format: cell-based; settings: GM08496 (Salla disease) fibroblasts fed 3 mM for 3 days
Description: as §1, §2

Compound	Neu5Gc incorporation into membrane-bound glycoconjugates in the presence of inhibitor (percent of total Sia) (Caco-2 cells)	incorporation of Neu5Gc in the TH fraction in the presence of inhibitor (percent of total Sia) (Caco-2 cells)	percent of Neu5Gc incorporation into membrane-bound glycoconjugates [1]	percent of Neu5Gc in membrane-bound glycoconjugates [2]	percent of Neu5Gc in membrane-bound glycoconjugates [3]
O=c1c(-c2ccc(O)cc2)coc2cc(O)cc(O)c12 [genistein]	34%	51%			
O=C(CO)N[C@@H]1C(O)O[C@H](CO)[C@@H](O)[C@@H]1O (some centres unmarked) [ManNGc, N-glycolylmannosamine]			19%	18%	17%
